Test results: ChEMBL document CHEMBL5725527, “Heterocyclic compounds and methods of their use” (2017)

The molecules below were run against T1, Type-2 angiotensin II receptor (Homo sapiens, UniProt P50052) (assay: AT2 Receptor Binding Assay: 120 μL membrane (5 mg protein/well) was incubated with 15 μL of [125I]-CGP42112A and 15 μL of compound at RT for 1.5 hrs. The binding reaction was stopped by rapid filtration through Unifilter GF/C plates (presoaked in 0.3% (v:v) BSA).Plate was washed three times with ice cold wash buffer.The filtration plates were dried at 37° C. overnight.50 μL of scintillation cocktail was added to each well.Radioactivity was determined using MicroBetaTriluxmicroplate scintillation counter.).
T1 sequence (P50052 whole entry): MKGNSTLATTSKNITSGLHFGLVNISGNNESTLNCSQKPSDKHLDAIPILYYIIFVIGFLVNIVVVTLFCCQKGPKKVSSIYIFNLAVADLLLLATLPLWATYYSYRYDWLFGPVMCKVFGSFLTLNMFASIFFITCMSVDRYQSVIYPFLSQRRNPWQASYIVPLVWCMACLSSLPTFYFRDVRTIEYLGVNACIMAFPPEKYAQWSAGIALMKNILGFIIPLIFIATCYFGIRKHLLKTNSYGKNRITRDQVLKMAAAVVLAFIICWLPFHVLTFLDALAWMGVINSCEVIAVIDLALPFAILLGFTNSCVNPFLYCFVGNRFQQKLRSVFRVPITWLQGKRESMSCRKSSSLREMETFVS

First: COc1ccc2c(c1OCC#Cc1ccc(F)cc1)C[C@@H](C(=O)NS(=O)(=O)N(C)C)N(C(=O)C(c1ccccc1)c1ccccc1)C2
Second: COc1ccc2c(c1OCC#Cc1ccccc1)C[C@@H](C(=O)NS(=O)(=O)N(C)C)N(C(=O)C(c1ccccc1)c1ccccc1)C2
The IC50 of the first is 2.6-fold higher: 206 nM for the first, 79.5 nM for the second.

First: COc1ccc2c(c1OCc1ccccc1)C[C@@H](C(=O)NS(=O)(=O)N(C)C)N(C(=O)C(c1ccccc1)c1ccccc1)C2
Second: O=C(O)[C@@H]1Cc2c(ccc(O)c2OCc2ccccc2)CN1C(=O)C(c1ccccc1)c1ccccc1
The IC50 of the first is 3.1-fold lower: 10.9 nM for the first, 33.5 nM for the second. The first is the more potent here.

`COc1ccc2c(c1OCC#Cc1ccc(F)cc1)C[C@@H](C(=O)O)N(C(=O)C(c1ccccc1)c1ccccc1)C2` and `COc1ccc2c(c1OCC#Cc1ccccc1)C[C@@H](C(=O)O)N(C(=O)C(c1ccccc1)c1ccccc1)C2` are within 1.5-fold of each other in IC50: 133 nM for the first, 96.2 nM for the second.
